Laboratory results reported in article PMC5608352, “Formyl peptide derived lipopeptides disclose differences between the receptors in mouse and men and call the pepducin concept in question” (PLoS ONE, 2017).
Residues, ends and D or L forms follow the SMILES beside them. *: point of attachment. Palmitoyl = CCCCCCCCCCCCCCCC(=O)*

How the values were obtained:
Fpr1 = test: Inhibition of fMIFL-induced superoxide release, WT mouse neutrophils; format: cell-based; conditions: fMIFL 10 nM; mF2Pal16 1 μM (inset) or 500 nM
From the text: Mice (8–12 weeks of age) were killed by cervical dislocation, the femurs and tibias were removed and freed of soft tissue attachments, and the extreme distal tip of each extremity was cut off. KRG without Ca^2+ and Mg^2+ (KRG-) was forced through the bone by using a 1-mL syringe with a 27-gauge needle. After dispersing cell clumps and removing the debris, the bone marrow granulocytes were isolated according to an earlier described procedure with some modifications. Briefly, a cell suspension in 2 mL of KRG- was laid on top of a three-layer Percoll gradient (1.095, 1.085, and 1.070 g/mL). The density of each Percoll solution was verified using density marker beads. […] The cell number and population of bone marrow cells were determined by flow cytometry based on forward scatter (size) and side scatter (density) localization.
NADPH-oxidase activity was determined using an isoluminol and HRP-enhanced chemiluminescence (CL) system that allow for the determination of superoxide production. The CL activity was measured in a six-channel Biolumat LB 9505 apparatus (Berthold Co., Wildbad, Germany), using disposable 4-mL polypropylene tubes with 1 mL reaction mixture. […] The light emission was recorded continuously over time and presented as superoxide production (in arbitrary light units, cpm x10^-6) as a function of time (min). […]

FPR2 = target: T1, FPR2 (Homo sapiens, UniProt P25090); test: Inhibition of WKYMVM-induced superoxide release, human neutrophils; format: cell-based
T1 construct: Human peripheral blood neutrophils were isolated from buffy coats from healthy blood donors; endogenous in cells; host or cells: human peripheral blood neutrophils from buffy coats of healthy donors
T1 sequence (P25090 1-351): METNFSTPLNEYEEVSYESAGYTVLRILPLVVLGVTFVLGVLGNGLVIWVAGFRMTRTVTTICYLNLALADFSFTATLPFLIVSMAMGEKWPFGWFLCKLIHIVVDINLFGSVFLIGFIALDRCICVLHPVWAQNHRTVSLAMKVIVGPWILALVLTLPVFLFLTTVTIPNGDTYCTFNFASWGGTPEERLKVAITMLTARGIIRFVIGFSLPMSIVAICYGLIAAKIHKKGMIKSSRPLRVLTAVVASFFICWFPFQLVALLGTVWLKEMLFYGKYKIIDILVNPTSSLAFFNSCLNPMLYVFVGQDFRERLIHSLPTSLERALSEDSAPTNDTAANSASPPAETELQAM
From the text: Human peripheral blood neutrophils were isolated from buffy coats from healthy blood donors using dextran sedimentation and Ficoll-Paque gradient centrifugation as described. The remaining erythrocytes were disrupted by hypotonic lysis and the neutrophils were washed twice, suspended in KRG and, stored on melting ice until use. This isolation process permits cells to be purified with minimal granule mobilization. The buffy coats were obtained from the blood bank at Sahlgrenska University Hospital. Ethics approval was not needed since the buffy coats were provided anonymously and could not be traced back to a specific individual. This is in line with Swedish legislation section code 4§ 3p SFS 2003:460 (Lag om etikprövning av forskning som avser människor).
NADPH-oxidase activity was determined using an isoluminol and HRP-enhanced chemiluminescence (CL) system that allow for the determination of superoxide production. The CL activity was measured in a six-channel Biolumat LB 9505 apparatus (Berthold Co., Wildbad, Germany), using disposable 4-mL polypropylene tubes with 1 mL reaction mixture. The tubes contained 4 U HRP and 10 μg/mL isoluminol together with the cells that were equilibrated in the Biolumat for 5 min at 37°C, after which the stimulus solution (100 μL) was added. The light emission was recorded continuously over time and presented as superoxide production (in arbitrary light units, cpm x10^-6) as a function of time (min). The activity before stimulus addition was recorded as basal line and this activity was not changed in vehicle control samples. […]
Data analysis was performed using Graph Pad Prism 7.0. The EC50/IC50 values were determined from experiments in which the activities were normalized to the response induced by maximal response or induced by agonist in the absence of inhibitor. […]
Human neutrophils (10^5 cells) were pre-incubated without (solid line) or with mF2Pal16 (1 μM) for 5 min before stimulation with A) the FPR2 specific agonist WKYMVM (50 nM, indicated by the arrow). […] The release of superoxide anions was measured continuously. […]

CCCCCCCCCCCCCCCC(=O)N[C@@H](CCCCN)C(=O)N[C@H](C(=O)N[C@@H](CC(N)=O)C(=O)N[C@@H](CCCNC(=N)N)C(=O)N[C@@H](CCCNC(=N)N)C(=O)N[C@@H](CC(N)=O)C(=O)N[C@@H](CC(C)C)C(=O)N[C@H](C(=O)N[C@@H](CC(N)=O)C(=O)N[C@@H](CO)C(=O)N[C@@H](CO)C(=O)N[C@@H](CCCNC(=N)N)C(=O)N1CCC[C@H]1C(=O)N[C@@H](CC(C)C)C(=O)N[C@@H](CCCNC(=N)N)C(=O)N[C@H](C(=O)O)C(C)C)C(C)C)[C@@H](C)CC [mF2Pal16] (Palmitoyl-KINRRNLVNSSRPLRV-OH; C-terminus assumed)
effect on fMIFL response, mouse neutrophils (Fpr1): no effect
magnitude of FPR2 inhibitory effect compared with PBP10 (FPR2; human neutrophils): not of the same magnitude as that of the most potent FPR2 inhibitor PBP10
effect on WKYMVM response, human neutrophils (FPR2; pepducin 1 μM pre-incubated (mF2Pal16, F1Pal16: 5 min), WKYMVM 50 nM): largely inhibited
